Test results reported in publication PMC3335202 (Journal of Medicinal Chemistry, 2012).
pIC50: −log10 of the molar value.

Key:
[1] = test system: Human embryonic stem cell H9 lines carrying MYH6-mCherry reporters; test: hESC cardiogenesis assay; assay type: cell-based; details: for induction of cardiogenesis (class in words): dose-response behaviour
[2] = test system: β-catenin-dependent canonical Wnt pathway; test: Wnt inhibition assay; assay type: cell-based, human

O=C1c2ccccc2-c2cccc(NC(=O)[C@H]3CC[C@H](N4C(=O)[C@@H]5[C@@H]6CC[C@@H](C6)[C@@H]5C4=O)CC3)c21 [Compound 30, 4-(cis-endo-(1,3-Dioxooctahydro-2H-4,7-methanoisoindol-2-yl))-N-(9H-fluoren-9-on-1-yl)-trans-cyclohexylcarboxamide]
induction of cardiogenesis (class in words) ([1]; hESCs): dose-dependent induction of cardiogenesis functional activity

O=C1[C@@H]2[C@@H]3CC[C@@H](C3)[C@@H]2C(=O)N1[C@H]1CC[C@@H](C(=O)Nc2cccc3cccnc23)CC1 [Compound 11, 4-(cis-endo-1,3-Dioxooctahydro-2H-4,7-methanoisoindol-2-yl)-N-(quinolin-8-yl)-cis-cyclohexyl carboxamide]
induction of cardiogenesis (class in words) ([1]; hESCs): dose-dependent induction of cardiogenesis functional activity

CC(=O)c1ncccc1NC(=O)[C@H]1CC[C@H](N2C(=O)[C@@H]3[C@@H]4CC[C@@H](C4)[C@@H]3C2=O)CC1 [Compound 34, 4-(cis-endo-(1,3-Dioxooctahydro-2H-4,7-methanoisoindol-2-yl))-N-(2-acetyl-pyridin-3-yl)-trans-cyclohexylcarboxamide]
induction of cardiogenesis (class in words) ([1]; hESCs): potent stimulators of cardiogenesis

O=C(Nc1cccc2ccccc12)c1ccc(N2C(=O)[C@@H]3[C@@H]4CC[C@@H](C4)[C@@H]3C2=O)cc1 [Compound 12, 4-(cis-endo-1,3-Dioxooctahydro-2H-4,7-methanoisoindol-2-yl)-N-(naphtalen-1-yl) benzamide]
induction of cardiogenesis (class in words) ([1]; hESCs): functionally inactive as inducers of cardiogenesis

O=C1[C@@H]2[C@@H]3CC[C@@H](C3)[C@@H]2C(=O)N1[C@H]1CC[C@H](C(=O)Nc2cccnc2Cl)CC1 [Compound 55, 4-(cis-endo-1,3-Dioxooctahydro-2H-4,7-methanoisoindol-2-yl)-N-(2-chloropyridin-3-yl)-trans-cyclohexylcarboxamide]
induction of cardiogenesis (class in words) ([1]; hESCs): dose-dependent induction of cardiogenesis functional activity

O=C1[C@@H]2[C@@H]3CC[C@@H](C3)[C@@H]2C(=O)N1[C@H]1CC[C@H](C(=O)Nc2cncc(O)c2)CC1 [Compound 54, 4-(cis-endo-1,3-Dioxooctahydro-2H-4,7-methanoisoindol-2-yl)-N-(5-hydroxyl-pyridin-3-yl)-trans-cyclohexylcarboxamide]
induction of cardiogenesis (class in words) ([1]; hESCs): dose-dependent induction of cardiogenesis functional activity

COC(=O)c1ccccc1NC(=O)[C@H]1CC[C@H](N2C(=O)[C@@H]3[C@@H]4CC[C@@H](C4)[C@@H]3C2=O)CC1 [Compound 27]
induction of cardiogenesis (class in words) ([1]; hESCs): dose-dependent induction of cardiogenesis functional activity

CC(=O)c1ccccc1NC(=O)[C@H]1CC[C@@H](N2C(=O)[C@@H]3[C@@H]4CC[C@@H](C4)[C@@H]3C2=O)CC1 [Compound 56, 4-(cis-endo-1,3-Dioxooctahydro-2H-4,7-methanoisoindol-2-yl)-N-(2-acetylphenyl)-cis-cyclohexyl carboxamide]
induction of cardiogenesis (class in words) ([1]; hESCs): dose-dependent induction of cardiogenesis functional activity

O=C1[C@@H]2[C@@H]3CC[C@@H](C3)[C@@H]2C(=O)N1[C@H]1CC[C@H](C(=O)Nc2cncc3ccccc23)CC1 [Compound 14, 4-(cis-endo-1,3-Dioxooctahydro-2H-4,7-methanoisoindol-2-yl)-N-(isoquinolin-4-yl)-trans-cyclohexylcarboxamide]
induction of cardiogenesis (class in words) ([1]; hESCs): dose-dependent induction of cardiogenesis functional activity

O=C1[C@@H]2[C@@H]3CC[C@@H](C3)[C@@H]2C(=O)N1[C@H]1CC[C@H](C(=O)Nc2ccncc2)CC1 [Compound 33, 4-(cis-endo-(1,3-Dioxooctahydro-2H-4,7-methanoisoindol-2-yl))-N-(pyridin-4-yl)-trans-cyclohexyl carboxamide]
pIC50 ([2]; Homo sapiens, HEK-293T, Wnt inhibition, HEK293T cells): ~7.00 | induction of cardiogenesis (class in words) ([1]; hESCs): functionally inactive as inducers of cardiogenesis

O=C1CCCc2cccc(NC(=O)[C@H]3CC[C@H](N4C(=O)[C@@H]5[C@@H]6CC[C@@H](C6)[C@@H]5C4=O)CC3)c21 [Compound 29, 4-(cis-endo-(1,3-Dioxooctahydro-2H-4,7-methanoisoindol-2-yl))-N-(8-oxo-5,6,7,8-tetrahydronaphthalen-1-yl)-trans-cyclohexylcarboxamide]
concentration giving maximum percent cardiogenesis ([1]; hESCs): 150 nM | induction of cardiogenesis (class in words) ([1]; hESCs): potent stimulators of cardiogenesis | fold greater cardiogenic potency (lower concentration) compared to 1 ([1]; ratio of concentrations for maximum cardiogenesis): 30 fold

O=C(Nc1cccc2cccnc12)c1ccc(N2C(=O)[C@@H]3[C@H](C2=O)[C@@H]2C=C[C@H]3CC2)cc1 [Compound 36, 4-cis-endo-(3a,4,7,7a-Tetrahydro-1H-4,7-ethanoisoindole-1,3(2H)-dion-2-yl)-N-(quinolin-8-yl) benzamide]
fold less potent in Wnt inhibition ([2]; compared with the well-tolerated parent (9/1)): > 10 fold

O=C(Nc1cccc2cccnc12)c1ccc(N2C(=O)[C@@H]3[C@@H]4CC[C@@H](C4)[C@@H]3C2=O)cc1 [Compound 9, 4-(cis-endo-1,3-Dioxooctahydro-2H-4,7-methanoisoindol-2-yl)-N-(quinolin-8-yl)benzamide]
induction of cardiogenesis (class in words) ([1]; hESCs): dose-dependent induction of cardiogenesis functional activity

O=C1[C@@H]2[C@@H]3CC[C@@H](C3)[C@@H]2C(=O)N1[C@H]1CC[C@H](C(=O)Nc2cccc3cccnc23)CC1 [Compound 10, 4-(cis-endo-1,3-Dioxooctahydro-2H-4,7-methanoisoindol-2-yl)-N-(quinolin-8-yl)-trans-cyclohexyl carboxamide]
Emax ([1]; Homo sapiens, Embryonic stem cell, read-out: % cardiogenesis): 145% | induction of cardiogenesis (class in words) ([1]; hESCs): potent stimulators of cardiogenesis

O=C1[C@@H]2[C@@H]3CC[C@@H](C3)[C@@H]2C(=O)N1[C@H]1CC[C@H](C(=O)Nc2cccc3ccncc23)CC1 [Compound 18, 4-(cis-endo-1,3-Dioxooctahydro-2H-4,7-methanoisoindol-2-yl)-N-(isoquinolin-8-yl)-trans-cyclohexylcarboxamide]
Z score at 625 nM ([1]; cardiogenesis, relative to DMSO control, 625 nM): negative | induction of cardiogenesis (class in words) ([1]; hESCs): dose-dependent induction of cardiogenesis functional activity

O=C1[C@@H]2[C@@H]3CC[C@@H](C3)[C@@H]2C(=O)N1[C@H]1CC[C@H](C(=O)Nc2nccc3ccccc23)CC1 [Compound 13, 4-(cis-endo-1,3-Dioxooctahydro-2H-4,7-methanoisoindol-2-yl)-N-(isoquinolin-1-yl)-trans-cyclohexylcarboxamide]
induction of cardiogenesis (class in words) ([1]; hESCs): dose-dependent induction of cardiogenesis functional activity

COc1cc(Br)ccc1NC(=O)[C@H]1CC[C@H](N2C(=O)[C@@H]3[C@@H]4CC[C@@H](C4)[C@@H]3C2=O)CC1 [Compound 53, 4-(cis-endo-1,3-Dioxooctahydro-2H-4,7-methanoisoindol-2-yl)-N-(4-bromo-2-methoxyphenyl)-trans-cyclohexylcarboxamide]
induction of cardiogenesis (class in words) ([1]; hESCs): dose-dependent induction of cardiogenesis functional activity

CC(=O)c1ccc(NC(=O)[C@H]2CC[C@H](N3C(=O)[C@@H]4[C@@H]5CC[C@@H](C5)[C@@H]4C3=O)CC2)cn1 [Compound 35, 4-(cis-endo-(1,3-Dioxooctahydro-2H-4,7-methanoisoindol-2-yl))-N-(6-acetyl-pyridin-3-yl)-trans-cyclohexylcarboxamide]
induction of cardiogenesis (class in words) ([1]; hESCs): functionally inactive as inducers of cardiogenesis
